Reference: PubChem BioAssay AID2060363 (Molecular Pharmacology Branch, DTP, NCI, 2025)

Tested on: 156681-154-R-J1-PDC tumor spheroids, viability % test/control
Assay: Anticancer human tumor 156681-154-R-J1-PDC patient-derived melanoma cell line growth inhibition [TAK]
Conditions: spheroids with HUVEC and MSC; for IC50: curve of first compound; for viability, T/C: stronger effect = lower value
In short: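 Spheroids of 60% malignant cells, 25% HUVEC and 15% hMSC were exposed to targeted agents combined with TAK-243 or ipatasertib. Concentrations started at or near clinical Cmax (10 microM if unknown) and descended in half-log steps.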

[1] = second compound 0.3 µM, first compound 0.0316 µM
[2] = second compound 0.3 µM, first compound 0.1 µM
[3] = second compound 0.3 µM, first compound 0.316 µM
[4] = second compound 0.3 µM, first compound 1 µM
[5] = second compound 0.3 µM, first compound 3.16 µM
[6] = second compound 0.3 µM, first compound 10 µM
[7] = second compound 0.949 µM, first compound 0.0316 µM
[8] = second compound 0.949 µM, first compound 0.1 µM
[9] = second compound 0.949 µM, first compound 0.316 µM
[10] = second compound 0.949 µM, first compound 1 µM
[11] = second compound 0.949 µM, first compound 3.16 µM
[12] = second compound 0.949 µM, first compound 10 µM
[13] = second compound 3 µM, first compound 0.0316 µM
[14] = second compound 3 µM, first compound 0.1 µM
[15] = second compound 3 µM, first compound 0.316 µM
[16] = second compound 3 µM, first compound 1 µM
[17] = second compound 3 µM, first compound 3.16 µM
[18] = second compound 3 µM, first compound 10 µM
[19] = second compound 9.49 µM, first compound 0.0316 µM
[20] = second compound 9.49 µM, first compound 0.1 µM
[21] = second compound 9.49 µM, first compound 0.316 µM
[22] = second compound 9.49 µM, first compound 1 µM
[23] = second compound 9.49 µM, first compound 3.16 µM
[24] = second compound 9.49 µM, first compound 10 µM
[25] = second compound 30 µM, first compound 0.0316 µM
[26] = second compound 30 µM, first compound 0.1 µM
[27] = second compound 30 µM, first compound 0.316 µM
[28] = second compound 30 µM, first compound 1 µM
[29] = second compound 30 µM, first compound 3.16 µM
[30] = second compound 30 µM, first compound 10 µM
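Note: spheroids exposed to compounds for 7 days before the endpoint.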

CC(C)(C)c1nc(-c2cccc(NS(=O)(=O)c3c(F)cccc3F)c2F)c(-c2ccnc(N)n2)s1 + CC(C)NCC(C(=O)N1CCN(c2ncnc3c2C(C)CC3O)CC1)c1ccc(Cl)cc1
IC50 (second compound 0.3 µM): 239 nM
IC50 (second compound 0.949 µM): 214 nM
IC50 (second compound 3 µM): 148 nM
IC50 (second compound 9.49 µM): < 31.6 nM
IC50 (second compound 30 µM): < 31.6 nM
viability, T/C [1]: 103%
viability, T/C [2]: 90.7%
viability, T/C [3]: 36.9%
viability, T/C [4]: 14.5%
viability, T/C [5]: 11.9%
viability, T/C [6]: 12.7%
viability, T/C [7]: 90.1%
viability, T/C [8]: 79%
viability, T/C [9]: 35.1%
viability, T/C [10]: 12.7%
viability, T/C [11]: 8.47%
viability, T/C [12]: 8.82%
viability, T/C [13]: 67.6%
viability, T/C [14]: 62.4%
viability, T/C [15]: 26.1%
viability, T/C [16]: 7.91%
viability, T/C [17]: 5.22%
viability, T/C [18]: 6.48%
viability, T/C [19]: 40.1%
viability, T/C [20]: 31.7%
viability, T/C [21]: 17.3%
viability, T/C [22]: 6.56%
viability, T/C [23]: 3.41%
viability, T/C [24]: 3.45%
viability, T/C [25]: 15.6%
viability, T/C [26]: 13%
viability, T/C [27]: 7.77%
viability, T/C [28]: 2.12%
viability, T/C [29]: 1.1%
viability, T/C [30]: 1.52%

CC(C)n1nc(-c2ccc3oc(N)nc3c2)c2c(N)ncnc21 + CC(C)NCC(C(=O)N1CCN(c2ncnc3c2C(C)CC3O)CC1)c1ccc(Cl)cc1
IC50 (second compound 0.3 µM): 26 nM
IC50 (second compound 0.949 µM): 12.5 nM
IC50 (second compound 3 µM): 2.4 nM
IC50 (second compound 9.49 µM): < 0.316 nM
IC50 (second compound 30 µM): < 0.316 nM
viability, T/C (second compound 0.3 µM, first compound 0.000316 µM): 94.5%
viability, T/C (second compound 0.3 µM, first compound 0.001 µM): 91.8%
viability, T/C (second compound 0.3 µM, first compound 0.00316 µM): 84.1%
viability, T/C (second compound 0.3 µM, first compound 0.01 µM): 69.4%
viability, T/C [1]: 45.9%
viability, T/C [2]: 25.2%
viability, T/C (second compound 0.949 µM, first compound 0.000316 µM): 83.4%
viability, T/C (second compound 0.949 µM, first compound 0.001 µM): 85.4%
viability, T/C (second compound 0.949 µM, first compound 0.00316 µM): 63.8%
viability, T/C (second compound 0.949 µM, first compound 0.01 µM): 58.6%
viability, T/C [7]: 32.1%
viability, T/C [8]: 20%
viability, T/C (second compound 3 µM, first compound 0.000316 µM): 65.4%
viability, T/C (second compound 3 µM, first compound 0.001 µM): 57.3%
viability, T/C (second compound 3 µM, first compound 0.00316 µM): 46.2%
viability, T/C (second compound 3 µM, first compound 0.01 µM): 38.3%
viability, T/C [13]: 19.7%
viability, T/C [14]: 11%
viability, T/C (second compound 9.49 µM, first compound 0.000316 µM): 39.9%
viability, T/C (second compound 9.49 µM, first compound 0.001 µM): 33.4%
viability, T/C (second compound 9.49 µM, first compound 0.00316 µM): 23.3%
viability, T/C (second compound 9.49 µM, first compound 0.01 µM): 16.3%
viability, T/C [19]: 11%
viability, T/C [20]: 4.26%
viability, T/C (second compound 30 µM, first compound 0.000316 µM): 15.5%
viability, T/C (second compound 30 µM, first compound 0.001 µM): 14.4%
viability, T/C (second compound 30 µM, first compound 0.00316 µM): 12.3%
viability, T/C (second compound 30 µM, first compound 0.01 µM): 7.31%
viability, T/C [25]: 3.39%
viability, T/C [26]: 1.21%

CCCS(=O)(=O)Nc1ccc(F)c(C(=O)c2c[nH]c3ncc(-c4ccc(Cl)cc4)cc23)c1F + CC(C)NCC(C(=O)N1CCN(c2ncnc3c2C(C)CC3O)CC1)c1ccc(Cl)cc1
IC50 (second compound 0.3 µM): 8190 nM
IC50 (second compound 0.949 µM): 7510 nM
IC50 (second compound 3 µM): 3820 nM
IC50 (second compound 9.49 µM): < 316 nM
IC50 (second compound 30 µM): < 316 nM
viability, T/C [3]: 104%
viability, T/C [4]: 111%
viability, T/C [5]: 103%
viability, T/C [6]: 24.5%
viability, T/C (second compound 0.3 µM, first compound 31.6 µM): 0.49%
viability, T/C (second compound 0.3 µM, first compound 100 µM): 91.8%
viability, T/C [9]: 89.5%
viability, T/C [10]: 101%
viability, T/C [11]: 85.2%
viability, T/C [12]: 15.7%
viability, T/C (second compound 0.949 µM, first compound 31.6 µM): 16.6%
viability, T/C (second compound 0.949 µM, first compound 100 µM): 82.9%
viability, T/C [15]: 83%
viability, T/C [16]: 72.8%
viability, T/C [17]: 58.8%
viability, T/C [18]: 6.57%
viability, T/C (second compound 3 µM, first compound 31.6 µM): 3.37%
viability, T/C (second compound 3 µM, first compound 100 µM): 3.64%
viability, T/C [21]: 41.6%
viability, T/C [22]: 42.8%
viability, T/C [23]: 36.5%
viability, T/C [24]: 1.52%
viability, T/C (second compound 9.49 µM, first compound 31.6 µM): 0.38%
viability, T/C (second compound 9.49 µM, first compound 100 µM): 0.73%
viability, T/C [27]: 19.2%
viability, T/C [28]: 19.2%
viability, T/C [29]: 4.74%
viability, T/C [30]: 0.42%
viability, T/C (second compound 30 µM, first compound 31.6 µM): 0.39%
viability, T/C (second compound 30 µM, first compound 100 µM): 0.5%

Cc1nc(NC(=O)N2CCCC2C(N)=O)sc1-c1ccnc(C(C)(C)C(F)(F)F)c1 (stereo not given) + CC(C)NCC(C(=O)N1CCN(c2ncnc3c2C(C)CC3O)CC1)c1ccc(Cl)cc1
IC50 (second compound 0.3 µM): > 10000 nM
IC50 (second compound 0.949 µM): 7110 nM
IC50 (second compound 3 µM): 1460 nM
IC50 (second compound 9.49 µM): < 31.6 nM
IC50 (second compound 30 µM): < 31.6 nM
viability, T/C [1]: 95.5%
viability, T/C [2]: 99%
viability, T/C [3]: 91%
viability, T/C [4]: 71.5%
viability, T/C [5]: 67.3%
viability, T/C [6]: 51.4%
viability, T/C [7]: 85.8%
viability, T/C [8]: 83.9%
viability, T/C [9]: 79%
viability, T/C [10]: 70.3%
viability, T/C [11]: 62%
viability, T/C [12]: 44.9%
viability, T/C [13]: 69.7%
viability, T/C [14]: 67.9%
viability, T/C [15]: 61.5%
viability, T/C [16]: 53.8%
viability, T/C [17]: 42.5%
viability, T/C [18]: 30.6%
viability, T/C [19]: 39.5%
viability, T/C [20]: 35.6%
viability, T/C [21]: 36.6%
viability, T/C [22]: 26.8%
viability, T/C [23]: 17.2%
viability, T/C [24]: 7.68%
viability, T/C [25]: 18%
viability, T/C [26]: 18%
viability, T/C [27]: 11.3%
viability, T/C [28]: 8.89%
viability, T/C [29]: 3.83%
viability, T/C [30]: 0.52%
